For 41 compounds, Ratio IC50 and IC50 results are on record in ChEMBL document CHEMBL4130423, “Synthesis, in vitro β-glucuronidase inhibitory potential and molecular docking studies of quinolines” (Eur J Med Chem, 2017).

By IC50 is commonly meant the concentration needed to halve the response being measured. Higher therefore signals a need for much substance.

The first assay deals with T1, Beta-glucuronidase (Bos taurus) (UniProt A3KMY8).
T1 sequence (whole entry): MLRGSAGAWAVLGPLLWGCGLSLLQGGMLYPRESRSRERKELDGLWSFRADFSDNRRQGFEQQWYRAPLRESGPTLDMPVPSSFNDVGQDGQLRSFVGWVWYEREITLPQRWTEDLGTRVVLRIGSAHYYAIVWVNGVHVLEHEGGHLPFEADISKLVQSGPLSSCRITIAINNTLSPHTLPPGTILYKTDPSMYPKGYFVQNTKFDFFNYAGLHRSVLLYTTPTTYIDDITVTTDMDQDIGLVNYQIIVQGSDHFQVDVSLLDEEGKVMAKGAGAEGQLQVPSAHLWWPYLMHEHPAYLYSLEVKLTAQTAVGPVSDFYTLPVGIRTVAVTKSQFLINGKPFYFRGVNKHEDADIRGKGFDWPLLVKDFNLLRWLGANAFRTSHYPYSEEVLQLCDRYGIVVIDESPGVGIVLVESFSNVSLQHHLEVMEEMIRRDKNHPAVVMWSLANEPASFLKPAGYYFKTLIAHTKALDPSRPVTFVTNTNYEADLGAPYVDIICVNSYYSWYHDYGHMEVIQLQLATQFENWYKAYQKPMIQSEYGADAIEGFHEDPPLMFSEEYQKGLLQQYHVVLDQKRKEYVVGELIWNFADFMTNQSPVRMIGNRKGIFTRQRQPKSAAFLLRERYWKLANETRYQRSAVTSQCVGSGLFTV
In words: Potency index, ratio of saccharic acid 1,4-lactone IC50 to test compound IC50 for bovine liver beta-glucuronidase.
Turning to `O=[N+]([O-])c1ccccc1S(=O)(=O)Nc1cccc2cccnc12`, the Ratio IC50 was 3. In the case of `O=S(=O)(Nc1cnc2ccccc2c1)c1ccc(Cl)cc1Cl`, the Ratio IC50 turned out to be 6. On to `O=S(=O)(Nc1cccc2ncccc12)c1cc(Cl)cc(Cl)c1O`, for which the Ratio IC50 worked out at 30. For `O=[N+]([O-])c1cccc(S(=O)(=O)Nc2cccc3cccnc23)c1`, the Ratio IC50 was 3.

Consider `O=S(=O)(Nc1cccc2cccnc12)c1ccc(Cl)cc1Cl`, for which the Ratio IC50 amounted to 8. In the case of `O=S(=O)(Nc1cccc2ncccc12)c1ccc(Cl)cc1Cl`, the Ratio IC50 was determined as 24.

Another assay deals with T2, Beta-glucuronidase (Bos taurus, UniProt A3KMY8).
T2 sequence (A3KMY8 whole entry): T1 sequence (whole entry)
Nature of the assay: Inhibition of bovine liver beta-glucuronidase using p-nitrophenyl-beta-D-glucuronide as substrate preincubated for 30 mins followed by substrate addition by spectrophotometric analysis.
`COc1ccc(S(=O)(=O)Nc2cnc3ccccc3c2)cc1OC` showed an IC50 of 33.5 to 53.6 µM. Still for that read-out and setting: to `CCCc1ccc(S(=O)(=O)Nc2cccc3cccnc23)cc1` belongs 70.5 µM; to `Cc1cc(S(=O)(=O)Nc2cccc3ncccc23)c(C)cc1Cl`, 23.5 µM. As to `O=[N+]([O-])c1cccc(S(=O)(=O)Oc2cccc3cccnc23)c1`, the IC50 stood at 30.1 µM. Take `COc1ccc(S(=O)(=O)Nc2cccc3cccnc23)cc1OC`: the half-maximal inhibitory concentration (IC50) was 42.6 µM. Still for that read-out and setting: to `CCCc1ccc(S(=O)(=O)Nc2cnc3ccccc3c2)cc1` belongs 27.2 µM; to `COc1ccc(Br)cc1S(=O)(=O)Nc1cccc2ncccc12`, 50.2 µM. Regarding `Cc1cc(S(=O)(=O)Oc2cccc3cccnc23)c(C)cc1Cl`, the IC50 was 41.6 µM.

In turn, `O=[N+]([O-])c1ccccc1S(=O)(=O)Nc1cccc2cccnc12` returned an IC50 of 18.2 µM. `COc1ccc(Br)cc1S(=O)(=O)Nc1cnc2ccccc2c1` showed an IC50 of 66.5 µM. In the case of `O=S(=O)(Nc1cnc2ccccc2c1)c1ccc(Cl)cc1Cl`, 8.4 µM corresponded to half-maximal inhibition (IC50). Regarding `O=S(=O)(Nc1cccc2cccnc12)c1ccc(Cl)cc1`, the IC50 turned out to be 33.4 µM.

Compound `CCCc1ccc(S(=O)(=O)Oc2cccc3cccnc23)cc1` returned a concentration for half-maximal inhibition (IC50) of 84.4 µM.

Compound `O=[N+]([O-])c1cccc(S(=O)(=O)Nc2cccc3ncccc23)c1` gave an IC50 of 12.2 µM.

In turn, `O=S(=O)(Nc1cnc2ccccc2c1)c1cc(Cl)ccc1Cl` yielded an IC50 of 5.5 µM. Compound `O=[N+]([O-])c1ccccc1S(=O)(=O)Oc1cccc2cccnc12` had an IC50 of 6.4 µM.

In the case of `O=S(=O)(Oc1cccc2cccnc12)c1ccc(Cl)cc1Cl`, the IC50 worked out at 9.7 µM.

On to `O=[N+]([O-])c1ccccc1S(=O)(=O)Nc1cnc2ccccc2c1`, for which it took 8.1 µM to reach half-maximal inhibition (IC50). The same measure, in the same setting: with `CCCCCCCCS(=O)(=O)Nc1cnc2ccccc2c1` the figure was 75.1 µM; with `COc1ccc(-c2nc3ccccc3c(=O)[nH]2)cc1`, 1.1 µM; with `COc1ccc(Br)cc1S(=O)(=O)Nc1cccc2cccnc12`, 68.5 µM.

On to `O=S(=O)(Nc1cccc2ncccc12)c1cc(Cl)cc(Cl)c1O`, for which the IC50 was 1.6 µM.

`Cc1cc(S(=O)(=O)Nc2cnc3ccccc3c2)c(C)cc1Cl` registered an IC50 of 34.4 µM. As to `O=S(=O)(Oc1cccc2cccnc12)c1ccccc1`, the concentration for half-maximal inhibition (IC50) was 49.5 µM. Compound `O=[N+]([O-])c1cccc(S(=O)(=O)Nc2cccc3cccnc23)c1` came in with an IC50 of 16.1 µM.

For the compound `O=S(=O)(Nc1cnc2ccccc2c1)c1ccccc1`, the IC50 was 53.4 µM. Compound `COc1ccc(Br)cc1S(=O)(=O)Oc1cccc2cccnc12` displayed an IC50 of 49.5 µM. The same measure, in the same setting: with `COc1ccc(-c2nc3ccccc3c(=O)[nH]2)cc1O` the figure was 2.8 µM. Regarding `O=[N+]([O-])c1ccc(S(=O)(=O)Nc2cccc3cccnc23)cc1`, the IC50 is 31.3 µM.

On to `O=S(=O)(Nc1cccc2cccnc12)c1ccc(Cl)cc1Cl`, for which the IC50 amounted to 6.1 µM. For the compound `O=S(=O)(Nc1cccc2cccnc12)c1ccccc1`, the IC50 was 66.4 µM. For `CCCc1ccc(S(=O)(=O)Nc2cccc3ncccc23)cc1`, the IC50 stood at 75.1 µM. Turning to `O=[N+]([O-])c1ccc(S(=O)(=O)Oc2cccc3cccnc23)cc1`, half-maximal inhibition (IC50) was put at 15.4 µM. In the case of `O=[N+]([O-])c1ccc(S(=O)(=O)Nc2cnc3ccccc3c2)cc1`, the IC50 is 31.6 µM. Compound `COc1ccc(S(=O)(=O)Nc2cccc3ncccc23)cc1OC` came in with an IC50 of 43.2 µM.

Take `O=S(=O)(Nc1cccc2ncccc12)c1cc(Cl)ccc1Cl`: 4.5 µM corresponded to half-maximal inhibition (IC50). `O=S(=O)(Nc1cccc2ncccc12)c1ccc(Cl)cc1Cl` displayed an IC50 of 2.1 µM.

Turning to `Cc1cc(S(=O)(=O)Nc2cccc3cccnc23)c(C)cc1Cl`, the 50% inhibitory concentration (IC50) was 24.5 µM. In the case of `CS(=O)(=O)Nc1cccc2cccnc12`, the half-inhibitory concentration (IC50) stood at 48.6 µM. Compound `COc1ccc(S(=O)(=O)Nc2cccc3cccnc23)cc1` registered an IC50 of 49.2 µM. Same read-out and setting: with `O=[N+]([O-])c1cccc(S(=O)(=O)Nc2cnc3ccccc3c2)c1` the figure was 46.2 µM.
